Reference: patent US8454582B2, “Methods and devices for the treatment of ocular conditions” (Surmodics, Inc., priority 2004, dated 2013)

Experiments:
[1] = In vivo elution: HPLC detection of TA in tissues after 4-week subretinal PCL/TA implantation; details: four weeks after subretinal implant, PCL/TA 60:40, rabbit
[2] = 72 hours after injection; cited from earlier work

Row | SMILES | TA in the anterior structures (HPLC) [1] | TA in the blood (HPLC) [1] | TA in the posterior tissue samples (HPLC) [1] | triamcinolone present in the vitreous that is associated with other tissues including the retina, pigment epithelium, and sclera [2]
1 | CC1(C)O[C@@H]2C[C@H]3[C@@H]4CCC5=CC(=O)C=C[C@]5(C)[C@@]4(F)[C@@H](O)C[C@]3(C)[C@]2(C(=O)CO)O1 [TA, Triamcinolone acetonide] | not detected | not detected | confirmed the presence | 
2 | C[C@]12C=CC(=O)C=C1CC[C@H]1[C@@H]3C[C@@H](O)[C@](O)(C(=O)CO)[C@@]3(C)C[C@H](O)[C@@]12F [triamcinolone] |  |  |  | less than 1%
